Square brackets hold non-standard residues; d marks the D form. Ends that are not written are not given here. pS = N[C@@H](COP(=O)(O)O)C(=O)O
Key:
Format in all cases: in vivo
[1] = system: mammary gland of lactating dairy cows; experiment: Field study of involution induction: change in somatic cell counts in milk samples after a single intramammary infusion at dry-off; conditions: for Changes in Somatic Cell Counts in milk samples, Day 1, Mean / Changes in Somatic Cell Counts in milk samples, Day 2, Mean / Changes in Somatic Cell Counts in milk samples, Day 3, Mean: change vs Day 0, calculated from log transformation of raw data, single intramammary infusion, peptides 4 mg in 10 ml, casein hydrolyzate 20 ml; for Changes in Somatic Cell Counts in milk samples, Day 1, Mean: Day 1 post treatment; for Changes in Somatic Cell Counts in milk samples, Day 2, Mean: Day 2 post treatment; for Changes in Somatic Cell Counts in milk samples, Day 3, Mean: Day 3 post treatment
Description: (§1) A filed study was performed to assess the potential of a single intramammary dose of the synthetic peptides of the invention administered at dry (i.e. at the day in which milking is ceased), to induce rapid involution.
(§2) Total of 107 dairy cows were enrolled to the study, of which 45 received treatment and 62 served as a control. All cows were dairy cows at their first or further lactation that stand the inclusion/exclusion criteria. The study was a controlled blinded case-control study.
(§3) Case subjects received one dose by intramammary infusion of a particular peptide. Controls were lactating cows that received the following products by intramammary administration:
(§4) Five groups of 9 cows (total of 36 udder quarters per group) were scheduled as case groups. Each group was treated with one out of the five (5) phosphopeptides described in Example 1 hereinabove (P241210-01-01; 03; 05; 07 and 09). The peptides were administered once via intramammary infusion of 10 ml containing 4 mg peptide.
(§5) Set one: Five groups of 9 cows (total of 36 udder quarters per group) were scheduled as a first control set. Each group was treated with one out of the five (5) dephosphorylated peptides described in Example 1 hereinabove (P241210-01-02; 04; 06; 08 and 10). The peptides were administered once via intramammary infusion of 10 ml containing 4 mg peptide.
(§6) (i) Eleven cows (total of 44 udder quarters) treated with casein hydrolyzate (20 ml) administered once via intramammary infusion of 20 ml (around 1.8 mg/ml casein phosphopeptide (CPP), total=36 mg CPP for 20 ml)
(§7) All treatments (peptides, casein hydrolyzate and saline) were administered at the time point scheduled for cessation of milking (dry off). The day of administration was set as Day 0.
(§8) Sets of aseptic milk samples were collected in two separate vials once a day in the milking facility after the morning milking, on Day 0 and in post-treatment days 1, 2 and 3. The sampling time points were set to up to three days after treatment administration to ensure sufficient milk secretion for the measurements of all involution parameters. The volume of the samples was between 30 to 50 ml. The pH of the milk sample was measured in situ using a Cyberscan pH11 meter (Eutech Instruments, Singapore). The apparatus was calibrated each day by immersing the receptor in standard buffers of pH 7.0 and pH 4.01. Measurements were taken twice for each sample obtained from a mammary gland, with an interval of 30 seconds between measurements. pH measurement was repeated on-site by using the same sample vial. Before double-pH measurement, the milk sample vials were gently shaken three (3) times. After the pH measurement, the milk samples vials were kept in cool storage with a preservative product (Broad Spectrum Microtabs II—Bronopol and Metamycin—D&F Control System Inc., Two Technology Way, Norwood Mass. 02062 USA).
Somatic cell count was also determined in milk samples by Fossomatic 360 (Foss Electric, Hillerod, Denmark), and based on guidelines from the USA National Mastitis Council. Laboratory Handbook on Bovine Mastitis. 1999. Ed. National Mastitis Council, Verona, Wis. 53593 USA.
(§9) Endpoint Measures: pH, lactose and somatic cell counts (SCC) values from milk secretions at day 0 and during three (3) days post-treatment were taken. Results are described as the difference between the measures at each of the 3 days post treatment and the measured level at Day 0.
Additional parameter that may be used to establish the progression of the involution process is the presence of somatic cells within the milk. The increase in cell count within the milk is the result of high degree of apoptotic epithelial cell death associated with involution. […] The results presented in the table were calculated from log transformation of the raw data that were highly variable.

[2] = system: mammary gland of lactating dairy cows; experiment: Field study of involution induction: change of pH in milk samples after a single intramammary infusion at dry-off; conditions: for Changes of pH in milk samples, Day 1, Mean / Changes of pH in milk samples, Day 2, Mean / Changes of pH in milk samples, Day 3, Mean: difference in pH vs Day 0, single intramammary infusion, peptides 4 mg in 10 ml, casein hydrolyzate 20 ml; for Changes of pH in milk samples, Day 1, Mean: Day 1 post treatment; for Changes of pH in milk samples, Day 2, Mean: Day 2 post treatment; for Changes of pH in milk samples, Day 3, Mean: Day 3 post treatment
Description: as §1, §2, §3, §4, §5, §6, §7, §8, §9
Table 2 below summarizes the effect of the peptides examined and of casein hydrolyzate (CNH) on the pH of milk samples taken 1, 2 and 3 days after the one-dose treatment with each peptide or CNH. The results are presented as the difference in pH value between each of the days post treatment and Day 0 (before treatment).

[3] = system: mammary gland of lactating dairy cows; experiment: Field study of involution induction: change in lactose content of milk samples after a single intramammary infusion at dry-off; conditions: for Changes in Lactose content in milk samples, Day 1, Mean / Changes in Lactose content in milk samples, Day 2, Mean / Changes in Lactose content in milk samples, Day 3, Mean: difference in lactose concentration vs Day 0, single intramammary infusion, peptides 4 mg in 10 ml, casein hydrolyzate 20 ml; for Changes in Lactose content in milk samples, Day 1, Mean: Day 1 post treatment; for Changes in Lactose content in milk samples, Day 2, Mean: Day 2 post treatment; for Changes in Lactose content in milk samples, Day 3, Mean: Day 3 post treatment
Description: as §1, §2, §3, §4, §5, §6, §7, §8
Lactose values in the milk samples were determined at the Central Laboratory of Milk Quality, Caesaria Industrial Park, Israel, according to ISO 2266211DF 198:2007.
Data from six quarters were excluded from the analysis of lactose changes. Data from one of those quarters were omitted due to a missing initial value. For the other five quarters, lactose concentrations taken during the three follow-up days could not be analyzed due to a rapid mammary involution process, resulting in non-sufficient milk sample for lactose analysis.
as §9
One of the most significant outcomes of involution in terms of milk composition is a reduction in lactose content. Thus, lactose concentration was also measured in the milk samples taken before and after peptide or CNH administration as described for the pH measurements hereinabove. […]

Substance | Changes in Somatic Cell Counts in milk samples, Day 1, Mean [1] | Changes in Somatic Cell Counts in milk samples, Day 2, Mean [1] | Changes in Somatic Cell Counts in milk samples, Day 3, Mean [1] | Changes of pH in milk samples, Day 1, Mean [2] | Changes of pH in milk samples, Day 2, Mean [2] | Changes of pH in milk samples, Day 3, Mean [2] | Changes in Lactose content in milk samples, Day 1, Mean [3] | Changes in Lactose content in milk samples, Day 2, Mean [3] | Changes in Lactose content in milk samples, Day 3, Mean [3] | induction of involution, overall conclusion in words ([1]; conclusion from pH, lactose and somatic cell count results) | effect on the milk pH, in words ([2]; compared with the other peptides and casein hydrolyzate, particularly first 2 days after treatment) | effect on the reduction of lactose content, in words ([3]; all time points examined, compared with CNH)
Glu-Ser(P)-Leu-Ser(P)-Ser(P)-Ser(P)-Glu-Glu-NH2 (E[pS]L[pS][pS][pS]EE-NH2; N-terminus assumed; SMILES CC(C)C[C@H](NC(=O)[C@H](COP(=O)(O)O)NC(=O)[C@@H](N)CCC(=O)O)C(=O)N[C@@H](COP(=O)(O)O)C(=O)N[C@@H](COP(=O)(O)O)C(=O)N[C@@H](COP(=O)(O)O)C(=O)N[C@@H](CCC(=O)O)C(=O)N[C@@H](CCC(=O)O)C(N)=O) [D(p), casein-derived peptide, positive control] | 0.383 | 1.181 | 1.998 | 0.027 | −0.018 | 0.077 | −0.431 | −1.460 | −2.180 | – | – | –
Lys-Lys-Ser(P)-Ser(P)-Ser(P)-NH2 (KK[pS][pS][pS]-NH2; N-terminus assumed; SMILES NCCCC[C@H](NC(=O)[C@@H](N)CCCCN)C(=O)N[C@@H](COP(=O)(O)O)C(=O)N[C@@H](COP(=O)(O)O)C(=O)N[C@@H](COP(=O)(O)O)C(N)=O) [B(p)] | 3.129 | 3.099 | 3.451 | 0.171 | 0.165 | 0.163 | −1.250 | −2.013 | −2.521 | highly effective in inducing involution | showed the most significant effect on the milk pH | higher effect on the reduction of lactose content compared to the effect of CNH
Lys-Ser(P)-Ser(P)-Ser(P)-Glu-Glu-NH2 (K[pS][pS][pS]EE-NH2; N-terminus assumed; SMILES NCCCC[C@H](N)C(=O)N[C@@H](COP(=O)(O)O)C(=O)N[C@@H](COP(=O)(O)O)C(=O)N[C@@H](COP(=O)(O)O)C(=O)N[C@@H](CCC(=O)O)C(=O)N[C@@H](CCC(=O)O)C(N)=O) [E(p), casein-derived peptide, positive control] | 0.060 | 1.175 | 1.847 | 0.045 | 0.061 | 0.128 | −0.354 | −1.530 | −2.042 | – | – | –
KKSLSS-NH2 [A] | 0.911 | 1.571 | 2.090 | 0.048 | −0.002 | 0.072 | −0.463 | −1.268 | −1.773 | – | – | –
Lys-Lys-Ser(P)-Ser(P)-NH2 (KK[pS][pS]-NH2; N-terminus assumed; SMILES NCCCC[C@H](NC(=O)[C@@H](N)CCCCN)C(=O)N[C@@H](COP(=O)(O)O)C(=O)N[C@@H](COP(=O)(O)O)C(N)=O) [C(p)] | −0.129 | 0.961 | 0.195 | 0.066 | 0.046 | 0.119 | −0.509 | −1.427 | −0.345 | – | – | –
Lys-Lys-Ser-Ser-NH2 [C] | 0.511 | 1.194 | 0.650 | 0.034 | −0.006 | −0.001 | −0.846 | −1.554 | −0.387 | – | – | –
Lys-Lys-Ser-Ser-Ser-NH2 [B] | 0.109 | 0.664 | 1.191 | −0.015 | −0.019 | 0.065 | −0.320 | −0.969 | −1.412 | – | – | –
ESLSSSEE-NH2 [D] | 0.387 | 1.023 | −0.249 | 0.000 | −0.027 | 0.013 | −0.749 | −1.387 | −0.090 | – | – | –
Lys-Lys-Ser(P)-Leu-Ser(P)-Ser(P)-Ser(P)-NH2 (KK[pS]L[pS][pS][pS]-NH2; N-terminus assumed; SMILES CC(C)C[C@H](NC(=O)[C@H](COP(=O)(O)O)NC(=O)[C@H](CCCCN)NC(=O)[C@@H](N)CCCCN)C(=O)N[C@@H](COP(=O)(O)O)C(=O)N[C@@H](COP(=O)(O)O)C(=O)N[C@@H](COP(=O)(O)O)C(N)=O) [A(p)] | 0.592 | 1.212 | 1.829 | 0.016 | 0.020 | 0.118 | −0.462 | −1.364 | −1.771 | – | – | –

Reference: patent US9487557B2, “Peptides for management of lactation” (MILEUTIS LTD., priority 2012, dated 2016)
